Measurements from patent US5248691A, “Furanoindolines” (Eli Lilly and Company, priority 1992, dated 1993).
≈ marks a conversion by molar mass, not a printed value. Like-named read-outs stand apart in the source and are kept apart here.

Key:
[1] = tested on: human squamous cell lung carcinoma (T222); assay: In vitro cytotoxicity, [3H]leucine uptake, T222 cells; type: cell-based; conditions: for IC50: read-out: IC50 (50% cytotoxic concentration)
Protocol: (§1) The cytotoxicities of 4-12 were determined by incubation (48 hours) of drug with a human squamous cell lung carcinoma (T222) and percent inhibition determined by measurement of [^3 H]leucine uptake. T222 (Masui, et al. Cancer, 44(3): 1002-1007, 1984) human squamous carcinoma and P3/UCLA (Varki, et al., Cancer Res. 44: 681-687, 1984) human lung carcinoma cells were grown in DMEM medium supplemented with 10% fetal bovine serum and 50 ug/mL gentamicin using standard tissue culture techniques. 1×10^4 target cells were distributed in each well of 96 well tissue culture plates and incubated in leucine deficient medium (leucine free DMEM plus 13 ug/mL L-leucine, 29.2 ug/mL L glutamine, 50 ug/mL gentamicin and 10% dialyzed fetal calf serum) for 16 hours at 37° C. in 5% CO2. The medium was then removed aseptically and compound dilutions were added in 200 ul of leucine deficient medium. Following an additional 48 hour incubation, 4 uCi ^3 H-leucine (NEN, Boston, Mass.) were added to each well and the plates were returned to the incubator for 24 hours. Radioactivity incorporated into macromolecules was determined using an automated cell harvester and liquid scintillation techniques. Data were evaluated as percent reduction in incorporation of radioactivity relative to controls incubated in medium without compound to yield an 50% cytotoxic concentration (IC50).

[2] = tested on: human lung adenocarcinoma (P3/UCLA); assay: In vitro cytotoxicity, similar protocol, P3/UCLA cells; type: cell-based
Protocol: as §1

[3] = tested on: T222 tumor; assay: Nude mouse xenograft, T222 tumor burden (i.v.); type: in vivo, nude mice; parameters: inhibition of growth of tumors (in words): dose or concentration left out as unconfirmed; conditions: for Number of Deaths/Number of Mice / Percent Inhibition of Tumor Growth: days 3, 5 and 7
Protocol: Prior to each xenograft experiment, cells were collected by treatment with Trypsin/EDTA (Gibco, Life Technologies, Grand Island, N.Y.) and washed with supplemented DMEM and finally suspended in Hanks balanced salt solution. 1×10^7 cells were injected s.c. into the flank of young adult female nude mice (Charles River Breeding Laboratories, Boston, Mass.). The mice were treated by i.v. injection in the tail vein at various time points. Tumor measurements were taken in two dimensions and converted to an estimate of mass using the formula [(length) (width^2)/2] as described by Geran, et al.. Cancer Chemother. Rep., 3:1-103, 1972. Control groups contained 10 mice with test groups containing 5 mice each. The Student test was used to evaluate differences between mean tumor masses.

[4] = tested on: minor groove of double stranded DNA; conditions: cited from earlier work
[5] = single intravenous subtherapeutic dose; healthy mice; cited from earlier work
[6] = T222 human squamous cell lung carcinoma, 48 hours incubation, [3H]leucine uptake

In the case of `Cc1coc2c(O)cc3c(c12)C(CCl)CN3C(=O)c1cc2cc(NC(=O)c3cc4ccccc4[nH]3)ccc2[nH]1` (single isomer, unassigned; (+)) [Compound 4], the IC50 [1, 6] is reported as 0.17 ng/mL (≈ 0.315 nM), the IC50 [2] is reported as 0.27 ng/mL (≈ 0.501 nM) and the “Number of Deaths/Number of Mice” value ([3]; 0.05 mg/kg i.v.) is reported as 0/5. For the same molecule, the “Percent Inhibition of Tumor Growth” value ([3]; 0.05 mg/kg i.v.) was 68%, the “Number of Deaths/Number of Mice” value ([3]; 0.1 mg/kg i.v.) was 0/5 and the “Percent Inhibition of Tumor Growth” value ([3]; 0.1 mg/kg i.v.) was 73%. For the same molecule, the “Number of Deaths/Number of Mice” value ([3]; 0.2 mg/kg i.v.) was 1/5, the “Percent Inhibition of Tumor Growth” value ([3]; 0.2 mg/kg i.v.) was 85% and the “Number of Deaths/Number of Mice” value ([3]; 0.4 mg/kg i.v.) was 5/5. The “inhibition of growth of tumors (in words)” value ([3]; intravenously on days 3, 5 and 7, T222 burden injected s.c. at day 0) was “inhibited the growth of tumors”.

With `Cc1coc2c(O)cc3c(c12)C(CCl)CN3C(=O)c1cc2cc(NC(=O)c3cc4ccccc4o3)ccc2[nH]1` (single isomer, unassigned; (+)) [Compound 5] the IC50 [1, 6] was 0.15 ng/mL (≈ 0.278 nM).

With `Cc1coc2c(O)cc3c(c12)C(CCl)CN3C(=O)c1cc2cc(NC(=O)c3cc4ccccc4s3)ccc2[nH]1` (single isomer, unassigned; (+)) [Compound 6] the IC50 [1, 6] was 0.2 ng/mL (≈ 0.36 nM).

In the case of `Cc1coc2c(O)cc3c(c12)C(CCl)CN3C(=O)c1cc2cc(NC(=O)c3cc4ccccc4[nH]3)ccc2o1` (single isomer, unassigned; (+)) [Compound 7], the IC50 [1, 6] is reported as 0.23 ng/mL (≈ 0.426 nM).

With `Cc1coc2c(O)cc3c(c12)C(CCl)CN3C(=O)c1cc2cc(NC(=O)c3cc4ccccc4o3)ccc2o1` (single isomer, unassigned; (+)) [Compound 8] the IC50 [1, 6] was 0.37 ng/mL (≈ 0.684 nM).

Molecule `Cc1coc2c(O)cc3c(c12)C(CCl)CN3C(=O)c1cc2cc(NC(=O)c3cc4ccccc4s3)ccc2o1` (single isomer, unassigned; (+)) [Compound 9] has an IC50 [1, 6] of 0.56 ng/mL (≈ 1.01 nM).

Molecule `Cc1coc2c(O)cc3c(c12)C(CCl)CN3C(=O)c1cc2cc(NC(=O)c3cc4ccccc4[nH]3)ccc2s1` (single isomer, unassigned; (+)) [Compound 10] has an IC50 [1, 6] of 0.29 ng/mL (≈ 0.522 nM).

In the case of `Cc1coc2c(O)cc3c(c12)C(CCl)CN3C(=O)c1cc2cc(NC(=O)c3cc4ccccc4o3)ccc2s1` (single isomer, unassigned; (+)) [Compound 11], the IC50 [1, 6] is reported as 0.26 ng/mL (≈ 0.467 nM).

`Cc1coc2c(O)cc3c(c12)C(CCl)CN3C(=O)c1cc2cc(NC(=O)c3cc4ccccc4s3)ccc2s1` (single isomer, unassigned; (+)) [Compound 12] gave an IC50 [1, 6] of 0.2 ng/mL (≈ 0.349 nM).

Molecule `CCC1(O)CC2CN(CCc3c([nH]c4ccccc34)C(C(=O)OC)(c3cc4c(cc3OC)N(C)C3C(O)(C(=O)NN)C(O)C5(CC)C=CCN6CCC43C65)C2)C1` (stereo not shown) [4-desacetylvinblastine-3-carboxhydrazide, reference compound] has an IC50 ([1]; Homo sapiens, T222, 48 h) of 3 ng/mL (≈ 3.9 nM).

For `COc1c(O)c2c(c3cc(C(=O)N4CCc5c4c(O)c(OC)c4[nH]c(C(=O)N6CC7CC78C6=CC(=O)c6[nH]cc(C)c68)cc54)[nH]c13)CCN2C(N)=O` (stereo not shown) [CC-1065], the DNA binding [4] is given as “binds covalently to the minor groove of double stranded DNA” and the “delayed deaths / hepatotoxicity” value [5] is given as “led to delayed deaths of healthy mice as a result of the hepatotoxicity”.

In the case of `Cc1coc2c(O)cc3c(c12)C(CCl)CN3C(=O)c1cc2cc(NC(=O)c3cc4ccccc4[nH]3)ccc2[nH]1` (stereo not drawn) [enantiomer of 4], the “antineoplastic potency relative to 4” value ([1]; T222 cell line, compared with 4) is reported as “approximately ten fold less potent”.
